According to patent US5428053A, “1-aminoacetamidopyrroles and 1-amino acetamido-2-(substituted) pyrroles and related compounds” (priority 1993, dated 1995):
Structures can show the parent of a compound that is named as a salt. Where two headings read alike, the source gives them in different places.

Legend:
[1] = molecular target: T1, glycine binding site associated with the N-methyl-D-aspartate (NMDA) receptor complex (Rattus norvegicus, UniProt P35439); assay: biochemical; set-up: species or system rat (male Wistar, cortex)
T1 construct: Cortices of male Wistar rats are dissected over ice; from tissue; host or cells: cerebral cortex of male Wistar rats, Triton X-100 treated washed membranes
Method: This procedure is a modification of the method described by Monahan et al.^1
1. Buffer A: 0.5M Tris maleate, pH 7.4 59.3 g Tris maleate bring to 0.5 l Adjust pH to 7.4 with 0.5M Tris base
2. Buffer B: 50 mM Tris maleate, pH 7.4 Dilute Buffer A 1:10 with distilled water, adjust pH with 50 mM Tris maleate (acid) or 50 mM Tris base.
3. […] Aliquots of 20 μl to the assay tube will give a final concentration of 10^-3 M.
4. […] Aliquots of 50 μl are added to yield a final assay concentration of 10 nM.
6. Triton-X 100, 10% (v/v). A stock solution of Triton-X 100, 10% can be prepared and stored in the refrigerator. Dilute 1.0 ml of Triton-X 100 to 10.0 ml with distilled water. On the day of the assay, the tissue homogenate (1:15 dilution) is preincubated with an aliquot of the 10% solution to give a final concentration of 0.04% (v/v).
Cortices of male Wistar rats are dissected over ice and homogenized in ice-cold 0.32M sucrose (1:15 w/v) for 30 seconds with a Tissumizer setting at 70. Three cortices are pooled for one preparation. The homogenate is centrifuged at 1,000 g for 10 minutes. The supernatant is centrifuged at 20,000 g for 20 minutes. Resuspend the pellet in 15 volumes of ice-cold distilled water (Tissumizer setting 70, 15 sec) and spin at 7,600 g for 20 minutes. Save the supernatant, swirl off the upper buffy layer of the pellet and add to the supernatant. Centrifuge the supernatant at 48,000 g for 20 minutes. Resuspend the pellet with 15 volumes of cold distilled water and centrifuge. Discard the supernatant and store the pellet at -70° C.
On the day of the assay, resuspend the pellet in 15 volumes ice-cold 50 mM Tris maleate, pH 7.4. Preincubate the homogenate with Triton-X in a final concentration of 0.04% (v/v) for 30 minutes at 37° C. with agitation. Centrifuge the suspension at 48,000 g for 20 minutes. Wash the pellet an additional 3 times by resuspension with cold buffer and centrifugation. The final pellet is resuspended in a volume 25 times the original net weight.
1. Prepare assay tubes in triplicate.
50 μl Buffer A, 0.5M Tris maleate, pH 7.4
or appropriate concentration of inhibitor
500 μl Tissue homogenate
2. Following the addition of the tissue, the tubes are incubated for 20 minutes in an ice-bath at 0°-4° C. Terminate the binding by centrifugation for 20 minutes. Return the tubes to ice. Aspirate and discard the supernatant. Carefully rinse the pellet twice with 1 ml ice-cold buffer, avoiding disruption of the pellet. Transfer the pellet to scintillation vials by vortexing the pellet with 2 ml of scintillation fluid, rinse the tubes twice with 2 ml and add an additional 4 ml of scintillation fluid.
3. […] IC50 values for the competing compound are calculated by log-probit analysis of the data.

[2] = molecular target: T2, NMDA associated strychnine-insensitive glycine modulatory site (Rattus norvegicus, UniProt P35439); assay: biochemical; set-up: species or system rat (male Sprague Dawley, cortical tissue); conditions: for EC50: 2.5 nM [3H]TCP, L-glutamic acid 10^-7 M, read-out: ENHANCEMENT OF [3H]TCP BINDING EC50
T2 construct: cortical tissue obtained from male Sprague Dawley rats; from tissue; host or cells: cortical tissue of male Sprague Dawley rats, crude synaptosomal homogenate, lysed and washed

[3] = Enhancement of step-down passive avoidance in rats; format: in vivo, rat (male Sprague Dawley); conditions: ip, 30 min prior, 24 hrs after acquisition
Method: In this assay, rats step off a wooden platform and subsequently receive a low-level foot shock. After 24 hours, the rats are observed for their ability to acquire and remember a passive avoidance behavior, that is, to stay on the platform. Male Sprague Dawley rats (Charles River) weighing 275-325 g were used in the passive avoidance procedure. Following a 11/2 week acclimation to the vivarium (5 rats per cage) where food and water were available ad libitum, rats were transported to the laboratory on day 1 of testing and acclimated to the experimental area and the investigator. Rats were labeled (tails marked) and handled by the investigator, then gently placed on a wooden platform (14×10.5×3.5 cm) in the experimental chamber (30.5×25×27 cm.) The chamber is equipped with a single house light and white noise generator to mask extraneous sounds. Once the animal stepped off the platform (all 4 paws touching the grid floor where grids are equally spaced every 2 cm), it was picked up by the base of the tail and returned to the home cage and then to the vivarium. On day 2, rats were returned to the laboratory and again acclimated to the experimental area for 30 min. Rats were intraperitoneally administered vehicle or compounds 30 min. prior to testing in a dosage volume of 1 ml/kg. Then the rats were gently placed on the wooden platform and their latency (in sec.) to step-down was recorded. When all four paws touched the grid, a low level 0.28 mA electric shock was delivered for 3 sec. by means of a Coulbourn Instruments grid floor shocker. Rats were immediately removed from the experimental chamber to their home cage when the shock ceased. […] Fifteen minutes later, this procedure was repeated. Rats were then returned to the vivarium. […] The latencies of each drug group on day 3 (24 hrs. following acquisition) was compared to the latencies of the vehicle control group by the non-parametric Mann-Whitney U test.

[4] = T-maze reinforced alternation task in rats (scopolamine-induced deficit); format: in vivo, rat (male Wistar); conditions: i.p.
Method: Male Wistar rats (Charles River) weighing 450-700 g were used in the T-maze procedure. Rats were housed (3 rats per cage) under standard laboratory conditions in the vivarium where food and water were available ad libitum. During training and testing, animals were transported to the dimly lit test room and acclimated for 30 min. The Lafayette Instruments T-maze consisted of a start box (30×20 cm), an alley way to the choice point (30×20 cm), a choice point area (25×25 cm), and two goal areas (30×20 cm) with a shock grid (grids every 11/2 cm) serving as the floor of the maze. Each session in the maze was controlled by a microprocessor.
Initially, animals were trained to greater than 70% choice accuracy in the maze for five consecutive days each week over a two week period. Following a 10 min. habituation to the maze, training commenced. All reinforced alternation sessions consisted of ten pseudo randomly paired trials. The first trial of each pair was the forced trial where the animal was forced to go to either the left or right goal box, since only one goal box door was open. The second trial was the choice trial where both goal box doors were open and the correct response was to enter the opposite goal to that entered on the previous forced run trial.
Each trial began when the rat was placed in the start box and allowed 15 sec. to enter the appropriate goal box. […] Following a 30 sec. intertrial interval (ITI), the next trial commenced. If during the choice trial, the rat entered the incorrect goal box (same goal entered during the forced trial), the guillotine door was closed and the rat received 5 electric shocks during the first 15 sec. of the 30 sec. ITI. All choices and latencies during the 10 paired trials were recorded by the computer controlled printer.
Animals which met criteria during training ([…]) were considered trained colony animals and were tested every other week. Testing was conducted over 3 consecutive days. Control sessions for baseline responding were conducted on days 1 and 2 so that the mean percentage of correct choices for each animal to qualify for drug testing was set at ≥70% correct choices.
The next time these animals were tested, they were administered pharmacological agents i.p. (at appropriate pretreatment times) in combination with scopolamine to measure effectiveness in reversing scopolamine-induced deficits in choice accuracy.
For statistical analysis, the means of each treatment group (drug+scopolamine) were compared to the mean of both the scopolamine alone group and the control group by the Dunnett's test.

NMDA receptor = assay: Stimulation of [3H]TCP binding by NMDA in extensively washed rat cortical membranes; conditions: glycine 1 μM added to NMDA
[5] = read-out: % OF MAXIMAL GLYCINE RESPONSE
[6] = read-out: % OF MAXIMAL GLYCINE RESPONSE, concentration 10 μM

Cl.NCC(=O)Nn1cccc1 [2-Amino-N-1H-pyrrol-1-ylacetamide Hydrochloride]
IC50 [1]: 14.8 µM
EC50 [2]: 92 µM
Emax at 100 µM [2, 5]: 65%
% Change from Control (median latency to step-down) ([3]; 10 mg/kg): +281%
% Change from Control (median latency to step-down) ([3]; 20 mg/kg): +625%
% Change from Control (median latency to step-down) ([3]; 80 mg/kg): +512%

Cl.NCC(=O)Nn1cccc1Cl [2-Amino-N-(2-chloro-1H-pyrrol-1-yl)acetamide Hydrochloride]
% Change from Control (median latency to step-down) ([3]; 10 mg/kg): +158%
% Change from Control (median latency to step-down) ([3]; 20 mg/kg): +25%
% Change from Control (median latency to step-down) ([3]; 40 mg/kg): +133%

NCC(=O)Nn1cccc1C(=O)c1cccs1 [2-Amino-N-[2-(2-thienylcarbonyl)-1H-pyrrol-1-yl]acetamide Hydrochloride]
IC50 [1]: 6 µM
EC50 [2]: 0.38 µM
Emax at 10 µM [2, 5]: 78%

NCC(=O)Nn1cccc1C(=O)c1ccccc1Cl [2-amino-N-[2-(2-chloro-benzoyl)-1H-pyrrol-1-yl]-acetamide hydrochloride]
IC50 [1]: 22.5 µM
EC50 [2]: 3 µM
Emax at 10 µM [2, 5]: 56%

NCC(=O)Nn1cccc1C(=O)c1ccccc1F [2-amino-N-[2-(2-fluorobenzoyl)-1H-pyrrol-1-yl]acetamide hydrobromide hemihydrate]
IC50 [1]: 11.2 µM
EC50 [2]: 3.1 µM
Emax at 10 µM [2, 6]: 77%
% Change from Control (median latency to step-down) ([3]; 10 mg/kg): +471%
% Change from Control (median latency to step-down) ([3]; 20 mg/kg): +836%
Mean % of Correct Choice ([4]; with scopolamine, 1/20 mg/kg (scopolamine/drug)): 64%

COc1ccccc1C(=O)c1cccn1NC(=O)CN.Cl [2-amino-N-[2-(2-methoxy-benzoyl)-1H-pyrrol-1-yl]-acetamide hydrochloride]
% Change from Control (median latency to step-down) ([3]; 1.25 mg/kg): +237%
% Change from Control (median latency to step-down) ([3]; 5 mg/kg): +80%
% Change from Control (median latency to step-down) ([3]; 10 mg/kg): +37%

NCC(=O)Nn1cccc1C(=O)c1ccccc1C(F)(F)F [2-amino-N-[2-(2-trifluoro-methyl)benzoyl)-1H-pyrrol-1-yl]acetamide hydrobromide]
% Change from Control (median latency to step-down) ([3]; 5 mg/kg): +900%
% Change from Control (median latency to step-down) ([3]; 10 mg/kg): +77%
% Change from Control (median latency to step-down) ([3]; 20 mg/kg): +122%
% Change from Control (median latency to step-down) ([3]; 40 mg/kg): +33%

NCC(=O)Nn1cccc1C(=O)c1cccc(F)c1.O=C(O)/C=C/C(=O)O [2-amino-N-[2-(3-fluorobenzoyl)-1H-pyrrol-1-yl]acetamide fumarate]
IC50 [1]: 4.8 µM
EC50 [2]: 0.6 µM
Emax at 10 µM [2, 6]: 76%
% Change from Control (median latency to step-down) ([3]; 5 mg/kg): +457%
% Change from Control (median latency to step-down) ([3]; 10 mg/kg): +343%
% Change from Control (median latency to step-down) ([3]; 20 mg/kg): +257%

COc1ccc(C(=O)c2cccn2NC(=O)CN)cc1 [2-amino-N-[2-(4-methoxybenzoyl)-1H-pyrrol-1-yl]acetamide]
IC50 [1]: 6.6 µM
EC50 [2]: 2 µM
Emax at 100 µM ([2]; read-out: % OF MAXIMAL GLYCINE RESPONSE, concentration 100 μM): 89%

NCC(=O)Nn1c(Cl)ccc1C(=O)c1ccccc1F [2-amino-N-[5-chloro-2-(2-fluorobenzoyl)-1H-pyrrol-1-yl]acetamide hydrobromide]
IC50 [1]: 6 µM
EC50 [2]: 1.7 µM
Emax at 30 µM ([2]; read-out: % OF MAXIMAL GLYCINE RESPONSE, concentration 30 μM): 65%

N[C@@H]1CONC1=O [D-cycloserine]
% Change from Control (median latency to step-down) ([3]; 5 mg/kg): +120%
Mean % of Correct Choice ([4]; with scopolamine, 1/3 mg/kg (scopolamine/drug)): 59%
Mean % of Correct Choice ([4]; with scopolamine, 1/10 mg/kg (scopolamine/drug)): 61%

CC(=O)c1cccn1NC(=O)CN [N-(2-Acetyl-1H-pyrrol-1-yl)-2-aminoacetamide Hydrochloride]
IC50 [1]: 22.5 µM
EC50 [2]: 1.3 µM
Emax at 10 µM [2, 5]: 71%

CN1[C@@H]2C[C@@H](OC(=O)[C@H](CO)c3ccccc3)C[C@H]1[C@@H]1O[C@@H]12 [Scopolamine]
choice accuracy (overall responding at chance levels) ([4]; scopolamine 1 mg/kg, 30 min pretreatment): 50%
Mean % of Correct Choice ([4]; scopolamine alone 1 mg/kg): 45%

NCC(=O)O [glycine]
potentiation of the maximal effect of NMDA on [3H]TCP binding (factor) (NMDA receptor): 1.7
